Reference: patent US11358940B2, “K-Ras modulators” (THE REGENTS OF THE UNIVERSITY OF CALIFORNIA, priority 2017, dated 2022)

Assays:
[1] = target: T1, Kras4b H95C (1-169) mutant protein (GppNHp-loaded) (Homo sapiens, UniProt P01116, H95C); test: Disulfide tethering screen, dose response; type: binding; conditions: FIG. 2
T1 construct: we generated Kras4b H95C (1-169) mutant protein; made in house
Text: Disulfide tethering is a site-directed fragment-based approach to drug-discovery, which allows the screening low-affinity disulfide containing fragments against a native or introduced cysteine residue of a target protein. Fragment binding is reversible, and can be tuned to favor detection of only the strongest bound fragments through the use of increasing concentrations of a reductant (typically β-mecaptoethanol). This binding is not purely driven by reactivity; it is influenced by protein/ligand interactions and is independent of pKa or surface exposure. Bound fragments are detected by mass spectrometry and provide a lead into the drug discovery process.
To target H95 specifically, we generated Kras4b H95C (1-169) mutant protein, and used it (GppNHp-loaded), to search for compounds that could bind to active KRas in close proximity to H95. We performed a tethering screen of a disulfide containing fragment library at the University of California San Francisco.

[2] = target: H95 site of KRas (Homo sapiens, UniProt P01116, H95C); test: Thermal melting analysis; type: binding; conditions: FIG. 3
[3] = target: T2, GDP loaded KRAS4b(1-169) H95C/C118S mutant (Homo sapiens, UniProt P01116, C118S/H95C); test: MALDI-TOF percentage labeling of C95, GDP-loaded protein; type: binding; conditions: for level of covalent labeling to C95 (percent of labeling), GDP, 3 h: 3 h incubation; for level of covalent labeling to C95 (percent of labeling), GDP, 6 h: 6 h incubation; for level of covalent labeling to C95 (percent of labeling), GDP, 24 h: 24 h incubation
T2 construct: loaded KRAS4b(1-169) H95C/C118S mutant
Description: (§1) Table 1 is a table summarizing levels of covalent labeling to C95 as analyzed by MALDI-TOF MS for a series of synthesized compounds. […] Both species, GDP or nonhydrolyzable analogue of GTP—GppNHp-loaded KRAS4b H95C/C118S, were then reacted with a panel of epoxides and analyzed by MALDI-TOF MS to assess level of covalent modification to C95 after 3 h, 6 h, or 24 h of incubation with the protein. All R isomers show enhanced activity compared to S isomers.
(§2) Example 18: Percentage Labeling Determination for Compounds Targeting KRAS4b Residue 95 by Matrix Assisted Laser Desorption Ionization-Time of Flight Mass Spectrometry (MALDI-TOF)
(§3) The assay uses four tool proteins: • Guanosine diphosphate (GDP) loaded KRAS4b(1-169) H95C/C118S mutant • 5′-Guanylyl imidodiphosphate (GppNHp) loaded KRAS4b(1-169) H95C/C118S mutant • GDP loaded KRAS4b(1-169) C118S mutant • GppNHp loaded KRAS4b(1-169) C118S mutant
(§4) 20 μM Solution of protein in 20 mM HEPES, 150 mM NaCl, 1 mM MgCl2, pH 7.3 buffer was prepared freshly before assay. 20 μl Aliquots of protein were dispensed on 384 well polypropylene plate, then tested compounds (0.8 μl, 10 mM in DMSO) were added to appropriate wells. For each reaction/assay three blank and three control samples were prepared by mixing 20 μl of protein solution with 0.8 μl DMSO or 10 mM standards (compounds 994566 and FB9). The wells content was carefully mixed by aspiration, then plate was sealed by adhesive cover, centrifuged at 2000 g for 1 minute and kept in dark at room temperature for 3, 6 (or 8) and 24 h.
(§5) Before each assay MALDI target (Bruker MPT 384 ground steel BC) was pre-treated by pipetting on each spot 1 μl of saturated sinapinic acid in acetonitrile (ACN).
(§6) After 24 h reaction, 2 μl of reaction mixtures were pipetted out into 20 μl MALDI matrix solution (saturated solution of sinapinic acid in 1:1 ACN:water solution containing 0.75% trifluoroacetic acid (TFA)) deposited on 384 well polypropylene plate. Resulting solution was mixed by aspiration, centrifuged at 2000 g for 1 minute, then 2 μl aliquots were dispensed on pre-treated MALDI target using Beckman Coulter Biomek FX^P 96/Span-8 Laboratory Automation Workstation. Finally, the MALDI target was dried under mild vacuum to produce spots with fine crystalline structure.
MALDI-TOF measurements were performed on Bruker Daltonics ultraflex III TOF-TOF mass spectrometer using linear mode and mass range from 5 to 45 kDa. Detector gain was set to ×9 (1734 V), sample rate to 1 GS/s, smart beam parameter set: 3_medium was used, and the laser frequency was 66.7 Hz. Spectra were automatically collected using custom AutoXecute method. Laser power was auto-adjusted using fuzzy control. The peak selection range was set to be between 19000 and 20200 Da. Peak evaluation uses half width parameter set to be smaller than 30 Da. Fuzzy control used Proteins/Oligonucleotides protocol with minimum half width ⅙ times above threshold. Up to 1500 shots were collected in 500 shot steps. Dynamic termination was implemented to finish data collection when peak intensity was reaching value of 1200 [a.u.].
Spectra were smoothed by SavitzkyGolay algorithm using 5 m/z width and three cycles. Centroid peak detection algorithm was used with signal to noise threshold set to 4, relative intensity threshold 2%, minimum intensity threshold 20 [a.u.], peak width 10 m/z and TopHat baseline subtraction. Peak intensity and area under the peak were evaluated and recorded for all peaks between 19248 Da and 20500 Da for H95/C118 mutant and 19285 Da and 20500 Da for C118 mutant respectively.
Percent of labeling was calculated using followed equation:
[formula] Similar results were obtained when peak area instead of peak height was used for calculations, however peak height method produced more reliable data in case of poor quality spectra.

[4] = target: T3, GppNHp loaded KRAS4b(1-169) H95C/C118S mutant (Homo sapiens, UniProt P01116, C118S/H95C); test: MALDI-TOF percentage labeling of C95, GppNHp-loaded protein; type: binding; conditions: for level of covalent labeling to C95 (percent of labeling), GppNHp, 3 h: 3 h incubation; for level of covalent labeling to C95 (percent of labeling), GppNHp, 6 h: 6 h incubation; for level of covalent labeling to C95 (percent of labeling), GppNHp, 24 h: 24 h incubation
T3 construct: loaded KRAS4b(1-169) H95C/C118S mutant
Description: as §1
150 to 300 μM solution of GDP loaded protein in KRAS buffer was prepared (20 mM HEPES, 150 mM NaCl, 1 mM MgCl2, 0.05 mM TCEP, pH 7.3). To this was added vigorously 1500×molar excess of 1 M ammonium sulfate in KRAS buffer, and the combination mixed gently by inverting tube. Next was prepared 250 mM solution of GppNHp (150 molar excess of GppNHp to protein; keep it on ice). To the protein was pipetted 10% of prepared GppNHp solution, then suspension of alkaline phosphatase from calf intestine on agarose was added (Sigma-Aldrich, P0726) to have 2 units of enzyme per each mg of protein. The reaction mixture was incubated at room temperature, rotating end-over for 1 h 30 min. The alkaline phosphatase was removed on agarose beads by filtering solution to a new vial using Millex-GP syringe filter. Remaining solution of GppNHp was added and incubated for additional 45 min. At the end of the exchange the protein was filtered again, placed on ice, and purified on NGC medium-pressure chromatography system (Bio-Rad). Five in-lane connected desalting columns (5×GE Healthcare HiTrap Desalting columns 5 ml, 17-1408-01) were used with isocratic elution of KRAS buffer at 4 ml/min. The protein elution was monitored at 280 nm. The concentration of final protein was evaluated by NanoDrop 2000 spectrophotometer (Thermo Fisher) using molar attenuation coefficient ε=19685 l·mol^−1·cm^−1. The quality of the protein was confirmed by MALDI and the exchange rate was assessed by HPLC based assay.
as §2, §3, §4, §5, §6
MALDI-TOF measurements were performed on Bruker Daltonics ultraflex III TOF-TOF mass spectrometer using linear mode and mass range from 5 to 45 kDa. […]

[5] = system: HupT4 pancreas carcinoma cells; test: Growth arrest in HupT4 cells; type: cell-based; conditions: 24 h
Description: Cell viability in the presence of compounds (discussed in examples above) was measured using CellTiter-Glo (Promega). Cells were plated in black-walled 384-well plates (Greiner, 781091) at densities in accordance with their doubling time (for MEFs typically 1,000 cells/well in 20 μl), using the Multidrop Combi Reagent Dispenser (Thermo). They were then incubated overnight at 37° C. in a humidified atmosphere of 5% CO2 prior to compound addition.
Compound and dimethylsulfoxide (DMSO) addition to microplates was performed using the Access Laboratory Workstation (Labcyte) and Echo 555 (Labcyte) liquid handler. Source plates with compounds and DMSO were prepared and the Echo 555 was used to transfer 50 nL of compound, DMSO, or both to the appropriate wells. […] of complete culture medium was added to all wells of the microplate after compound addition. The highest final concentration in each assay was 100 μM or 50 μM with between seven to 12 dilutions. The final DMSO concentration in all wells was 0.2%.
[…] All conditions were done in triplicates and experiments performed at least thrice. Cellular ATP levels (an indicator of cell count) were determined with CellTiter-Glo (CTG, Promega G7573) luminescence assay, using an EnVision Plate Reader (PerkinElmer).
Plates were harvested at two time points. […] Growth inhibition was calculated by: […]

[6] = target: farnesylated and carboxymethylated KRas (FMe-KRas) (Homo sapiens, UniProt P01116); test: MALDI-TOF analysis of labeling of fully processed KRas; type: binding
[7] = target: T4, KRas H95C (1-169) (Homo sapiens, UniProt P01116, H95C); test: MALDI-TOF analysis of KRas H95C reacted with compound; type: binding; conditions: reacted for 24 h
T4 construct: we generated Kras4b H95C (1-169) mutant protein; made in house
Text: Next, we reacted all three epoxides synthesized (structures depicted in FIG. 10A) with KRas H95C (1-169) to investigate reactivity at that site.
Single enantiomers of FNL-0012, compounds […] and FNL-0044 (R), then corresponding single enantiomers of FNL-0030, compounds FNL-0043 (S) and FNL-0045 (R), were synthesized (FIG. 14A). These enantiomers were investigated using a MALDI-TOF MS screen using KRAS4b (1-169) H95C, and also cell-based assays.

SMILES	binding at H95 site of KRas in dose response experiments [1]	shift in Tm upon fragment binding [2]	level of covalent labeling to C95 (percent of labeling), GDP, 3 h [3] [%]	level of covalent labeling to C95 (percent of labeling), GDP, 6 h [3] [%]	level of covalent labeling to C95 (percent of labeling), GDP, 24 h [3] [%]	level of covalent labeling to C95 (percent of labeling), GppNHp, 3 h [4] [%]	level of covalent labeling to C95 (percent of labeling), GppNHp, 6 h [4] [%]	level of covalent labeling to C95 (percent of labeling), GppNHp, 24 h [4] [%]	growth arrest / cell proliferation [5]	covalent labeling of FMe-KRas [6]	covalent modification of C95 [7]
CN(C)CCSSCCNC(=O)Cc1ccc(Cl)c(Cl)c1 [compound 917105]	strong binders	significant shifts in Tm	–	–	–	–	–	–	–	–	–
O=C(NCc1cn(C[C@H]2CO2)nn1)c1c[nH]c2ccccc12	–	–	0	5	31	0	2	11	–	–	–
CN(C)CCSSCCn1cc(CNC(=O)c2n[nH]c3ccccc23)nn1 [compound 966854]	strong binders	significant shifts in Tm	–	–	–	–	–	–	–	–	–
Cc1ccc(S(=O)(=O)c2cn(CC3OC3(C)C)nn2)cc1 (stereo not drawn)	–	–	0	0	0	0	0	0	–	–	–
Cn1nc(C(=O)NCc2cn(C[C@H]3CO3)nn2)c2cc(Br)ccc21	–	–	3	10	49	0	2	10	–	–	–
O=C(Cc1ccc(Cl)c(Cl)c1)NCC1CO1 (stereo not drawn) [FNL-0010]	–	–	–	–	–	–	–	–	did not affect cell proliferation	did not label	covalently labeled C95
CC(C)C[C@H](NC(=O)c1cn(C)c2ccccc12)C(=O)[C@@]1(C)CO1	–	–	0	0	0	0	0	0	–	–	–
COc1ccc(Cl)cc1C(=O)N[C@H]1COC1=O	–	–	87	91	89	76	81	78	–	–	–
Cc1ccc(S(=O)(=O)c2cn(CCSSCCN(C)C)nn2)cc1 [compound 966844]	strong binders	significant shifts in Tm	–	–	–	–	–	–	–	–	–
CC(=O)Oc1ccccc1C(=O)NCc1cn(C[C@@H]2CO2)nn1	–	–	5	12	45	2	3	14	–	–	–
